The values below come from PubChem BioAssay (NCI).

SMILES strings stand for the structures.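 Compound exposure: 48 hours, 5 concentrations, 96-well plates. The concentration for 50% growth inhibition is given as GI50. Definition used: TGI = concentration required for complete inhibition of growth.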

Test in all cases: NCI anticancer screen, dose series, 48 h
In assay [1] the test system is A549 NSCLC.
In assay [2] the test system is ACHN renal.
Assay [3] relates to COLO 205 colon.
Assay [4] has as its system DU-145 prostate.
For assay [5], the system named is HCT-116 colon.
The test system of assay [6] is KM12 colon.
In assay [7] the test system is RPMI-8226 leukemia.
Assay [8] has as its system SF-295 CNS.
The test system of assay [9] is SK-MEL-2 melanoma.
Assay [10] has as its system SN12C renal.

As to `COC(=O)c1ccccc1NCc1cc(O)ccc1O`, the TGI in assay [1] is more than 83.1 µM; in [2], 29.8 µM; in assay [3] it was 34 µM; in assay [4], more than 100 µM; in [5], 35.2 µM; in [6] it was 53.2 µM. Further, the TGI was found to be 96.9 µM in assay [7], 33.3 µM in assay [8], 58.3 µM in assay [9] and 36.9 µM in assay [10].

Take `N#Cc1c(N/N=C/c2c(Cl)cccc2Cl)nc(N)nc1N1CCCC1`: the GI50 was 3.65 µM in assay [1]; 3.18 µM in [2]; 5.29 µM in [3]; 5.23 µM in assay [4]; 1.01 µM in assay [5]; 3.02 µM in [6]. In addition, the GI50 in assay [7] was 2.56 µM; in assay [8] it was 1.02 µM; in assay [9], 5.55 µM; in assay [10], 4.68 µM. Further, the TGI in [1] was more than 100 µM; in assay [2], more than 100 µM; in assay [3], more than 100 µM; in assay [4], more than 100 µM; in assay [5], 16.8 µM; in assay [6], more than 100 µM. The TGI was 8.21 µM in assay [7], more than 100 µM in assay [8], more than 100 µM in assay [9] and more than 100 µM in assay [10].

As for `CC1=C(C(=O)OC(C)(C)C)C(c2ccc([N+](=O)[O-])cc2)C(C(=O)OC(C)(C)C)=C(C)N1`, the TGI in [1] came out at 52.3 µM; in [2], 41.3 µM; in assay [3] it was 39.8 µM; in assay [4], 62.4 µM; in assay [5], 36.4 µM; in assay [6] it was 38.5 µM. Also, the TGI in assay [7] is 54 µM; in assay [8], 46.2 µM; in assay [9], 46.6 µM; in assay [10], 35.4 µM.

In the case of `O=C(/C=C/N1CCN(c2cccc(Cl)c2)CC1)c1ccc(Cl)cc1`, the GI50 in [1] was 31.9 µM; in assay [2], 44.9 µM; in assay [3] it was 36.2 µM; in assay [4], 38.4 µM; in assay [5], 27.1 µM; in [6], 27.1 µM. Besides, the GI50 in [7] is 18.3 µM; in assay [8], 18.6 µM; in assay [9] it was 35.3 µM; in assay [10] it was 24.1 µM. For the same compound, the TGI in assay [1] is more than 100 µM; in assay [2], more than 100 µM; in assay [3], more than 100 µM; in [4] it was more than 100 µM; in assay [5], 70.4 µM; in [6] it was 69.8 µM. In addition, the TGI in assay [7] is 50.7 µM; in [8], 54.2 µM; in assay [9] it was more than 100 µM; in assay [10] it was 65 µM.

For the compound `COc1cc(-c2nn(-c3cccc(NC(=O)c4cccc(C(F)(F)F)c4)c3)cc2-c2ccncc2)ccc1Cl`, the GI50 was 1.87 µM in assay [1]; 1.89 µM in [2]; 1.64 µM in [3]; 1.76 µM in assay [4]; 1.67 µM in assay [5]; 1.66 µM in assay [6]. For the same compound, the GI50 is 1.57 µM in [7], 1.02 µM in assay [8], 1.56 µM in [9] and 3.31 µM in assay [10]. For the same compound, the TGI in [1] is more than 50 µM; in assay [2] it was more than 50 µM; in [3], 5.17 µM; in assay [4], 32.1 µM; in [5], more than 50 µM; in assay [6] it was more than 50 µM. The TGI was 26.6 µM in assay [7], 3 µM in assay [8], more than 50 µM in [9] and more than 50 µM in assay [10].

Regarding `Cc1c(-c2ccc(N3CCc4cccc(C(=O)Nc5nc6ccccc6s5)c4C3)nc2C(=O)O)cnn1CC12CC3CC(CC(C3)C1)C2`, the GI50 was 4.97 µM in [1]; 4.83 µM in assay [2]; 0.63 µM in assay [3]; 15.2 µM in [4]; 3.23 µM in assay [5]; 4.97 µM in assay [6]. In addition, the GI50 in [7] was less than 0.0177 µM; in [8], 3.53 µM; in assay [9], 3.1 µM; in assay [10], 6.93 µM. The TGI in assay [1] amounted to 25.3 µM; in assay [2], 18.5 µM; in assay [3], 10.9 µM; in assay [4], 29.1 µM; in assay [5], 14.9 µM; in [6], 20.6 µM. The TGI is 2.86 µM in assay [7], 11.6 µM in assay [8], 20.5 µM in assay [9] and 29.8 µM in assay [10].

Consider `COc1cc2c(cc1OCCCN1CCN(CCCn3c4ccccc4c4ccccc43)CC1)N=C[C@@H]1CCCN1C2=O`, for which the GI50 was 0.294 µM in [1]; 0.43 µM in assay [2]; 0.0749 µM in assay [3]; 0.0335 µM in assay [4]; 0.156 µM in [5]; 0.157 µM in assay [6]. In addition, the GI50 in [7] was 0.0106 µM; in [8], less than 0.0359 µM; in [9], 0.159 µM; in assay [10] it was 0.243 µM. The TGI in [1] was determined as 1.28 µM; in assay [2], 1.27 µM; in [3], 0.235 µM; in assay [4], 1.14 µM; in [5], 3.93 µM; in assay [6], 0.578 µM. For the same compound, the TGI in [7] was 0.0483 µM; in assay [8], 0.235 µM; in [9] it was 0.539 µM; in [10], 1.51 µM.

Turning to `O=C(c1ccccc1)c1ccc(N2C(=O)C3C4c5ccccc5C(/C=C/C(=O)c5ccccn5)(c5ccccc54)C3C2=O)cc1` (stereo not given), the GI50 is 2.87 µM in assay [1]; 2.07 µM in assay [2]; 3.72 µM in assay [3]; 2.78 µM in assay [4]; 1.66 µM in [5]; 1.88 µM in assay [6]. The GI50 was 2.49 µM in assay [7], 2.03 µM in [8], 3.07 µM in assay [9] and 2.73 µM in assay [10]. In addition, the TGI in assay [1] is more than 100 µM; in [2] it was 4.64 µM; in assay [3], 20.8 µM; in assay [4] it was 8.1 µM; in assay [5], 4.02 µM; in assay [6], 4.39 µM. For the same compound, the TGI in assay [7] is 53.3 µM; in assay [8] it was 5.07 µM; in [9], 15.4 µM; in assay [10], more than 100 µM.
